Data taken from patent US20240240160A1, “NOVEL OLIVETOL SYNTHASES FOR C[…]” (priority 2021, published 2024).

How the values were obtained:
OLS from C. sativa = biological target: T1, OLS from C. sativa (Cannabis sativa, UniProt B1Q2B6); assay: Product inhibition assay with butyryl-CoA and malonyl-CoA; assay type: biochemical
T1 construct: made in house
T1 sequence (B1Q2B6 1-385): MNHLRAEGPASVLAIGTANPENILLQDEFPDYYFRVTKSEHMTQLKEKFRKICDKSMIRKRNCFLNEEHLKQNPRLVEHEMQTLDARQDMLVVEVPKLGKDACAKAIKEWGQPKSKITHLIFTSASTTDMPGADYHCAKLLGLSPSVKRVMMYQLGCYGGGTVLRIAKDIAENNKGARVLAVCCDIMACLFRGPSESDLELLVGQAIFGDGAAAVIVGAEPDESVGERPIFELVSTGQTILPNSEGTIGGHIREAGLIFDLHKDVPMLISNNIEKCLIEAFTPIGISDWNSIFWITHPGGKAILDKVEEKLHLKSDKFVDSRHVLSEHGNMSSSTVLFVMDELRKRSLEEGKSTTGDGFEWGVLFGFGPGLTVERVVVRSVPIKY
Experimental: (§1) Assays were performed in a total volume of 50 μL in 100 mM Tris, pH 7.5 buffer containing 100 μM malonyl-CoA; 100 µM hexanoyl-CoA; a malonyl-CoA regenerating system comprising malonyl-CoA synthetase, excess malonate, and ATP; and excess purified olivetolic acid cyclase (OAC). The major product in this assay was olivetolic acid (OLA), and the triketide pentyl diacetic acid lactone (PDAL) was a side product. N-His-tagged purified enzymes were assayed under these assay conditions at enzyme concentrations and reaction times suitable for initial rate measurements of product formation. Reactions were initiated by addition of the PKS, then incubated for 30 min. Subsequently, 10 μL of reaction solution was removed and quenched into 15 volumes of 75% acetonitrile containing 0.1% formic acid and internal standards, then centrifuged to pellet denatured protein. Supernatants were transferred to fresh plates for LC-MS analysis of OLA, olivetol (OL), and PDAL as described in the Method section above.
(§2) Assays were performed as described in Example 3 with the following exception: instead of hexanoyl-CoA (C6), butyryl-CoA (C4) was used as substrate along with malonyl-CoA, in order to evaluate the inhibitory effect of the products with hexanoyl-CoA (i.e., OLA, OL and PDAL) on the activity of the enzymes. Accordingly, the products in this assay were the tetraketides divarinic acid (DVA) and divarinol (DVL) and the triketide propyl diacetic acid lactone (propyl-DAL) (see FIG. 4). The rates to form these products were measured in the presence of various concentrations of OLA, OL, and PDAL.

[1] = system: AAZ32094.1 from Oncidium hybrid cultivar (SEQ ID NO:2); assay: as above; assay type: biochemical
Experimental: as §1, §2

[2] = system: QDX46968.1 from Anoectochilus roxburghii (SEQ ID NO:6); assay: as above; assay type: biochemical
Experimental: as §1, §2

[3] = system: E. coli derivative strain which overexpressed an acyl-CoA synthetase (fadD) gene and expressed an olivetolic acid cyclase (OAC) from Cannabis sativa; assay: OL, OLA and PDAL production in E. coli from genome-integrated Type-III PKS genes; assay type: cell-based
Experimental: To test olivetolic acid production in E. coli, strains comprising a putative OLS gene and an OAC gene from C. sativa were inoculated in multi-well plates containing LB supplemented with 1% glucose and appropriate concentrations of antibiotics. After 6 hours of cultivation at 32° C., the cells were transferred with a 10% inoculum to a P-limited seed medium (see Table 2) and cultivated for ˜18 hours at 32° ° C. to reach an OD of 2.0-4.0. The cultures were transferred with a 20% inoculum in a P-minimal medium (see Table 3) supplemented with 2% glucose and appropriate concentrations of antibiotics. After 3 hours of cultivation at 32° C., the culture was spiked with 4 mM hexanoic acid (˜OD 1.5-2.0). The resulting cultures were then harvested at either 3 hours or 21 hours post hexanoic acid spike; a final OD was taken. 300 μL of butyl acetate containing 500 mg/L undecanoic acid was added to each multi-well plate. The plates were then vortexed for 30 minutes at 1500 rpm and centrifuged for 10 minutes at 4500 rpm. 50 μL of organic layer was transferred to a 96-well plate and derivatized with 50 μL of N,O-Bis(trimethylsilyl)trifluoroacetamide (BSTFA). The plate was then incubated at room temperature for 2 hours to allow for complete derivatization. The samples were then run on GC-FID for analytical quantification of olivetolic acid (OLA), olivetol (OL), PDAL, and hexanoic acid.
Olivetol, PDAL, OLA, HTAL, CBGA and combinations thereof were analyzed by LCMS or LCMS/MS methods using C18 reversed phase chromatography coupled to either EXACTIVE™ (ThermoFisher) or QTRAP® 4500 (Sciex) mass spectrometers.
For reversed phase LCMS, compounds were identified by their LC retention times and MRM transitions specific to the compounds. LCMS/MS analysis was conducted on a Shimadzu UHPLC system coupled with AB Sciex QTRAP 4500 mass spectrometer. Agilent Eclipse XDB C18 column (4.6×3.0 mm, 1.8 μm) was used with a 1-min gradient elution at 1 mL/min using water containing 0.1% ammonia acetate as mobile phase A and 90% methanol containing 0.1% ammonia acetate as mobile phase B. The LC column temperature was maintained at 45° C. Negative ionization mode was used for all the analytes.
Three of the type-III PKS genes from Example 1 were integrated under control of a constitutive promoter into an E. coli derivative strain which overexpressed an acyl-CoA synthetase (fadD) gene and expressed an olivetolic acid cyclase (OAC) from Cannabis sativa.
The in vivo assay procedure and analytical methods were performed as described above.

[4] = system: E. coli derivative strain which overexpressed an acyl-CoA synthetase (fadD) gene and expressed an olivetolic acid cyclase (OAC) from Cannabis sativa; assay: OL, OLA and PDAL production in E. coli from plasmid-expressed Type-III PKS genes; assay type: cell-based; conditions: gene on plasmid
Procedure, shortened: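 E. coli strains expressing codon-optimized Type-III PKS genes (constitutive promoter) plus fadD overexpression and C. sativa OAC, grown at 32° C in P-minimal medium with 2% glucose, spiked with 4 mM hexanoic acid; harvested 3 h or 21 h post-spike. Butyl acetate extracts BSTFA-derivatized, OLA/OL/PDAL quantified by GC-FID.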

[5] = system: hexanoyl-CoA and malonyl-CoA; assay: Specific activity assay of purified type-III polyketide synthases (OLA formation in presence of OAC); assay type: biochemical; conditions: hexanoyl-CoA and malonyl-CoA in the presence of OAC; FIG. 3
Experimental: In this Example, the specific activities of three previously uncharacterized type-III polyketide synthases (PKS) to form olivetolic acid from hexanoyl-CoA and malonyl-CoA in the presence of olivetolic acid cyclase (OAC) were determined and compared to the olivetol synthase (OLS) from C. sativa.
as §1

[6] = at 1 mM OLA, butyryl-CoA substrate
[7] = increasing concentrations of the added product
[8] = constitutive promoter, 4 mM hexanoic acid
[9] = constitutive promoter, culture spiked with 4 mM hexanoic acid

Molecule: CCCCCc1cc(O)cc(O)c1C(=O)O [OLA, olivetolic acid]
- amount of DVA+DVL formed by the enzyme (OLS from C. sativa; at 1 mM of the added product, butyryl-CoA substrate): 1.5 µM
- enzyme activity (OLS from C. sativa; at 2 mM of the added product): almost completely inactive
- amount of DVA+DVL formed [1, 6]: about 9 μM
- amount of the triketide propyl-DAL [1, 6]: 3 to 5 µM
- effect on formation of the tetraketide products (DVL+DVA) [1, 7]: not inhibited, but rather stimulated
- effect on the triketide product propyl-DAL [1, 7]: inhibited
- amount of DVA+DVL formed [2, 6]: about 9 μM
- amount of the triketide propyl-DAL [2, 6]: 3 to 5 µM
- effect on formation of the tetraketide products (DVL+DVA) [2, 7]: not inhibited, but rather stimulated
- effect on the triketide product propyl-DAL [2, 7]: inhibited

Molecule: CCCCCc1cc(O)cc(=O)o1 [PDAL, pentyl diacetic acid lactone]
- inhibition of the activity of OLS from C. sativa (OLS from C. sativa; [7]): inhibitory, but to a somewhat lesser extent
- effect on activity of the enzyme [1, 7]: not inhibited
- effect on activity of the enzyme [2, 7]: not inhibited

B1: AAZ32094.1: Type-III PKS enzyme from Oncidium hybrid cultivar (protein)
chain: MPSLESVKNAKRAEGFASILAIGRANPEHFIEQSSYPDFFFRVTNSEHLVALKKKFQRICDKTAIRKRHFAWNEELLTTNSCFQTFMGNSLNVRQEFAIREIPKLGAQAANKAIQEWGQPKSRITHLIFCTTSGMDLPGADYQLTEILGLNPNVERVMLYQQGCFAGGTTLRLAKCLAESRKGARVLVVCAETTTVLFRAPSEEHQDDLVTQALFADGASALIVGADPDEAAHERASFIIVSTSQVLLPDSAGAIGGHVSEGGLLATLHRDVPQIVSKNVGKCLEEAFTPLGISDWNSIFWVPHPGGRAILDQIEERVGLKPEKLFISRHVLAEYGNMSSVCVHFALDEMRKRSAKEGKATTGEGLDWGVLFGFGPGLTVETVVLHSVPVTN
modifications: Oncidium hybrid cultivar; (1)..(392) AAZ32094.1
- products produced by strains with chromosomally expressed enzyme [3]: produced olivetol (OL), olivetolic acid (OLA) and pentyl diacetic acid lactone (PDAL)
- Total ([3]; OL + OLA + PDAL): 1038 µM
- OL [3, 8]: 355 µM
- OLA [3, 8]: 534 µM
- PDAL [3, 8]: 149 µM
- Total ([4]; OL + OLA + PDAL): 1781 µM
- levels of OLA relative to the E. coli strain with OLS from C. sativa [4]: over two-fold
- OL [4, 9]: 672 µM
- OLA [4, 9]: 751 µM
- PDAL [4, 9]: 358 µM
- specific activity to form olivetolic acid compared with OLS from C. sativa [5]: higher specific activities
